Data from PubChem BioAssay (NCI).
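Values below derive from 48-hour exposures of cells grown in 96-well plates, with endpoints linearly interpolated between the two concentrations bracketing the appropriate inhibition level. TGI is the concentration that stops growth completely.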

Assays:
Experiment in all cases: DTP human tumour cell line panel, 48 h
[1] = tested on: COLO 205 colon
[2] = tested on: ACHN renal
[3] = tested on: EKVX NSCLC
[4] = tested on: SK-OV-3 ovarian
[5] = tested on: UACC-257 melanoma
[6] = tested on: OVCAR-8 ovarian
[7] = tested on: SR leukemia
[8] = tested on: OVCAR-5 ovarian
[9] = tested on: SNB-75 CNS
[10] = tested on: 786-0 renal
[11] = tested on: HT29 colon
[12] = tested on: SNB-19 CNS
[13] = tested on: T-47D breast
[14] = tested on: A498 renal
[15] = tested on: SK-MEL-28 melanoma
[16] = tested on: A549 NSCLC
[17] = tested on: MOLT-4 leukemia
[18] = tested on: HCT-116 colon
[19] = tested on: NCI-H23 lung
[20] = tested on: NCI-H226 lung
[21] = tested on: UO-31 renal
[22] = tested on: SK-MEL-2 melanoma
[23] = tested on: RPMI-8226 leukemia
[24] = tested on: MDA-MB-231 breast
[25] = tested on: UACC-62 melanoma
[26] = tested on: M14 melanoma
[27] = tested on: NCI/ADR-RES ovarian
[28] = tested on: SW-620 colon
[29] = tested on: SK-MEL-5 melanoma
[30] = tested on: MALME-3M melanoma
[31] = tested on: IGROV1 ovarian
[32] = tested on: MCF7 breast
[33] = tested on: HL-60(TB) leukemia
[34] = tested on: HOP-92 NSCLC
[35] = tested on: SF-539 CNS
[36] = tested on: HCC-2998 colon
[37] = tested on: U251 CNS
[38] = tested on: HS 578T breast
[39] = tested on: KM12 colon
[40] = tested on: PC-3 prostate
[41] = tested on: HCT-15 colon
[42] = tested on: NCI-H460 lung
[43] = tested on: CAKI-1 renal
[44] = tested on: OVCAR-3 ovarian
[45] = tested on: SF-295 CNS
[46] = tested on: K-562 leukemia
[47] = tested on: SN12C renal
[48] = tested on: HOP-62 NSCLC
[49] = tested on: MDA-N
[50] = tested on: MDA-MB-435
[51] = tested on: SF-268 CNS
[52] = tested on: LOX IMVI melanoma
[53] = tested on: DU-145 prostate
[54] = tested on: NCI-H522 lung
[55] = tested on: CCRF-CEM leukemia
[56] = tested on: BT-549 breast
[57] = tested on: TK-10 renal
[58] = tested on: RXF 393 renal
[59] = tested on: OVCAR-4 ovarian

Measured: TGI

CNC1C(O)C(OC2C(N)CC(N)C(OC3OC(CN)=CCC3N)C2O)OCC1(C)O (stereo not drawn)
> 100 µM: [1] | [2] | [3] | [4] | [5] | [6] | [7] | [8] | [9] | [10] | [11] | [12] | [13] | [14] | [15] | [16] | [17] | [18] | [19] | [20] | [21] | [22] | [23] | [24] | [25] | [26] | [27] | [28] | [29] | [30] | [31] | [32] | [33] | [34] | [35] | [36] | [37] | [38] | [39] | [40] | [41] | [42] | [43] | [44] | [45] | [46] | [47] | [48] | [49] | [50] | [51] | [52] | [53] | [54] | [55] | [56]

CC1=CC(=O)CC(C)(C)C1(O)/C=C/C(C)=C/C(=O)O (stereo not drawn)
> 100 µM: [1] | [2] | [3] | [4] | [5] | [6] | [7] | [8] | [9] | [10] | [11] | [12] | [13] | [14] | [15] | [16] | [17] | [18] | [57] | [19] | [58] | [20] | [21] | [22] | [23] | [24] | [25] | [26] | [27] | [28] | [29] | [30] | [31] | [32] | [33] | [34] | [35] | [36] | [59] | [37] | [38] | [39] | [40] | [41] | [42] | [43] | [44] | [45] | [46] | [47] | [48] | [49] | [50] | [51] | [52] | [53] | [54] | [55] | [56]

O=c1[nH]cc(/C=N\Nc2ccccc2)c(=O)[nH]1
> 100 µM: [1] | [2] | [3] | [4] | [5] | [6] | [7] | [8] | [9] | [10] | [11] | [12] | [13] | [14] | [15] | [16] | [18] | [57] | [19] | [58] | [20] | [21] | [22] | [23] | [24] | [25] | [26] | [27] | [28] | [29] | [30] | [31] | [32] | [33] | [34] | [35] | [36] | [59] | [37] | [38] | [39] | [40] | [41] | [42] | [43] | [44] | [45] | [46] | [47] | [49] | [50] | [51] | [52] | [53] | [54] | [55] | [56]

COc1ccc(C2=Nn3c(nc4sc(C)c(C)c4c3=O)SC2)cc1
> 100 µM: [1] | [2] | [3] | [4] | [5] | [6] | [7] | [8] | [9] | [10] | [11] | [13] | [14] | [15] | [16] | [17] | [18] | [57] | [19] | [58] | [20] | [21] | [23] | [24] | [25] | [27] | [28] | [29] | [30] | [31] | [32] | [33] | [34] | [35] | [36] | [59] | [37] | [38] | [39] | [40] | [41] | [42] | [43] | [44] | [45] | [46] | [47] | [48] | [49] | [50] | [51] | [52] | [53] | [54] | [55] | [56]
